The text below walks through data of PubChem BioAssay (NCI).

Some test systems named below: CAKI-1 renal; COLO 205 colon; HCT-15 colon; HL-60(TB) leukemia; LOX IMVI melanoma; OVCAR-3 ovarian; OVCAR-8 ovarian; SF-295 CNS; SF-539 CNS; SF-268 CNS.
Holding throughout (assay): NCI-60 cell line screen, 48 h

The structures appear in SMILES notation.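 Protocol summary: plate cells (96-well), add compound at 5 concentrations, incubate 48 h, interpolate endpoints linearly. Abbreviation: GI50, concentration required for 50% inhibition of growth. Definition used: TGI = concentration required for complete inhibition of growth.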

As for `O=C(O)CC(CC(=O)O)n1cccc1`, the TGI in the assay on CAKI-1 renal, in the assay on COLO 205 colon, in the assay with HCT-15 colon, with HL-60(TB) leukemia, in the assay with LOX IMVI melanoma and in the assay on OVCAR-3 ovarian was above 100 µM each time. The TGI in the assay with OVCAR-8 ovarian, with SF-295 CNS and with SF-539 CNS was above 100 µM throughout.
For the compound `Cc1ncc2c(n1)CCC1=C2OS(=O)(=O)CC1N(C)C` (stereo not drawn), the TGI in the assay on CAKI-1 renal, with COLO 205 colon, in the assay with HL-60(TB) leukemia, in the assay with LOX IMVI melanoma, in the assay on OVCAR-3 ovarian and with OVCAR-8 ovarian was above 100 µM throughout. For the same compound, the TGI in the assay with SF-268 CNS and in the assay with SF-539 CNS was above 100 µM each time.
For the compound `CC(C)OC(=O)NNc1c(Cl)cc(Cl)cc1Cl`, the TGI with CAKI-1 renal, with COLO 205 colon, in the assay on HCT-15 colon, in the assay on HL-60(TB) leukemia, in the assay on LOX IMVI melanoma and with OVCAR-3 ovarian was above 100 µM each time. Moreover, the TGI with OVCAR-8 ovarian, in the assay on SF-268 CNS, in the assay on SF-295 CNS and in the assay with SF-539 CNS was above 100 µM throughout.
For the compound `O=C1CC2=CCCC2O1` (stereo not drawn), the TGI in the assay with CAKI-1 renal, with COLO 205 colon, in the assay on HCT-15 colon, in the assay with HL-60(TB) leukemia, in the assay with LOX IMVI melanoma and in the assay on OVCAR-3 ovarian was above 100 µM each time. The TGI in the assay with OVCAR-8 ovarian, in the assay on SF-268 CNS, with SF-295 CNS and in the assay on SF-539 CNS was above 100 µM in each case.
Turning to `CCOC(=O)N1C/C(=C\c2ccc(N(C)C)cc2)C(=O)/C(=C/c2ccc(N(C)C)cc2)C1`, the TGI with CAKI-1 renal, in the assay on COLO 205 colon, in the assay on HCT-15 colon, in the assay on HL-60(TB) leukemia, with LOX IMVI melanoma and in the assay with OVCAR-3 ovarian was above 100 µM throughout. The TGI in the assay on OVCAR-8 ovarian, with SF-268 CNS, with SF-295 CNS and in the assay on SF-539 CNS was above 100 µM in each case.
On to `Nc1ccccc1SC(CC(=O)c1ccccc1)c1c(Cl)cccc1Cl` (stereo not drawn), for which the GI50 in the assay with CAKI-1 renal is 4.9 µM; with COLO 205 colon, 10.9 µM; in the assay on HCT-15 colon, 2.08 µM; in the assay with HL-60(TB) leukemia, 3.36 µM; with LOX IMVI melanoma, 1.59 µM; with OVCAR-3 ovarian, 3.4 µM. Moreover, the GI50 with OVCAR-8 ovarian was 2.63 µM; with SF-268 CNS, 3.43 µM; in the assay on SF-295 CNS it was 5.59 µM; in the assay with SF-539 CNS it was 6.17 µM. Also, the TGI was found to be 39.9 µM with CAKI-1 renal; 29.9 µM with COLO 205 colon; 5.92 µM in the assay on HCT-15 colon; 11.7 µM with HL-60(TB) leukemia; 3.2 µM with LOX IMVI melanoma; 12 µM with OVCAR-3 ovarian. Moreover, the TGI in the assay with OVCAR-8 ovarian amounted to 9.61 µM; in the assay on SF-268 CNS, 13.4 µM; in the assay with SF-295 CNS, 19.1 µM; with SF-539 CNS it was 20.5 µM.
As for `CC[P+](C)(C)CC`, the TGI with COLO 205 colon, in the assay with HCT-15 colon, in the assay with HL-60(TB) leukemia, with LOX IMVI melanoma, in the assay with OVCAR-3 ovarian and in the assay on OVCAR-8 ovarian was above 100 µM in each case. For the same compound, the TGI in the assay with SF-268 CNS, with SF-295 CNS and with SF-539 CNS was above 100 µM in each case.
Take `Cc1nc2ccccc2c(/C=C/c2ccc(F)cc2)c1C(=O)/C=C/c1ccccc1`: the GI50 with CAKI-1 renal was 1.58 µM; in the assay with HCT-15 colon it was 1.92 µM; in the assay on HL-60(TB) leukemia, 2.55 µM; with LOX IMVI melanoma, 1.69 µM; in the assay on OVCAR-3 ovarian it was 1.57 µM; in the assay on OVCAR-8 ovarian it was 2.62 µM. The GI50 is 3.45 µM with SF-268 CNS, 4.72 µM in the assay with SF-295 CNS and 1.81 µM with SF-539 CNS. Moreover, the TGI worked out at 3.83 µM in the assay on CAKI-1 renal; 6.2 µM in the assay with HCT-15 colon; 6.93 µM with HL-60(TB) leukemia; 3.11 µM in the assay with LOX IMVI melanoma; 3.12 µM with OVCAR-3 ovarian; 7.75 µM in the assay with OVCAR-8 ovarian. The TGI was above 100 µM with SF-268 CNS, above 100 µM with SF-295 CNS and 3.57 µM with SF-539 CNS.
As for `O=C(OCc1ccccc1)N1N=NC2C3CC(OCc4ccccc4)(OCc4ccccc4)C(O3)C21` (stereo not drawn), the TGI was above 100 µM with CAKI-1 renal; 63 µM with COLO 205 colon; above 100 µM in the assay on HCT-15 colon; 32.6 µM in the assay with HL-60(TB) leukemia; 42.8 µM with LOX IMVI melanoma; 59.6 µM in the assay with OVCAR-3 ovarian. For the same compound, the values for the TGI in the assay on SF-268 CNS, with SF-295 CNS and with SF-539 CNS were 87.7 µM, above 100 µM and above 100 µM, respectively.
Turning to `Cc1ccc(-c2csc3ncnc(Nc4cccc(O)c4)c23)cc1`, the GI50 in the assay on COLO 205 colon was 36.4 µM; in the assay with HCT-15 colon, 19.8 µM; with HL-60(TB) leukemia it was 18.2 µM; in the assay on LOX IMVI melanoma, 25.9 µM; in the assay on OVCAR-3 ovarian, 22.3 µM; in the assay on OVCAR-8 ovarian, 32.3 µM. Moreover, the values for the GI50 in the assay with SF-268 CNS, in the assay with SF-295 CNS and in the assay on SF-539 CNS were above 100 µM, 2.13 µM and 37.7 µM, respectively. Besides, the TGI in the assay with COLO 205 colon is above 100 µM; in the assay with HCT-15 colon, 44.5 µM; in the assay with HL-60(TB) leukemia it was 51.5 µM; with LOX IMVI melanoma, 62 µM; in the assay with OVCAR-3 ovarian it was 50.4 µM; in the assay on OVCAR-8 ovarian, above 100 µM. Also, the figures for the TGI in the assay on SF-268 CNS, in the assay on SF-295 CNS and in the assay on SF-539 CNS were above 100 µM, 24.7 µM and above 100 µM, respectively.
On to `Oc1ccc(Br)cc1C=Nc1ccc(Oc2ccc(N=Cc3cc(Br)ccc3O)cc2)cc1`, for which the TGI in the assay on CAKI-1 renal, in the assay on COLO 205 colon, in the assay with HL-60(TB) leukemia, with LOX IMVI melanoma, in the assay on OVCAR-3 ovarian and with OVCAR-8 ovarian was above 19.6 µM in each case. In addition, the TGI in the assay on SF-268 CNS, with SF-295 CNS and with SF-539 CNS was above 19.6 µM throughout.
Turning to `O=C1c2c[n+](Cc3ccccc3)ccc2-c2nc3ccccc3c3ccnc1c23`, the GI50 with CAKI-1 renal is 1.2 µM; with COLO 205 colon, 0.409 µM; in the assay with HCT-15 colon, 0.87 µM; with HL-60(TB) leukemia, 0.72 µM; in the assay on LOX IMVI melanoma, 0.583 µM; in the assay on OVCAR-3 ovarian it was 0.379 µM. Besides, the GI50 is 0.765 µM in the assay with SF-268 CNS, 0.585 µM in the assay on SF-295 CNS and 0.545 µM in the assay on SF-539 CNS. Further, the TGI in the assay with CAKI-1 renal was found to be 9.37 µM; in the assay with COLO 205 colon it was 1.11 µM; in the assay with HCT-15 colon it was 6.18 µM; with HL-60(TB) leukemia, 1.93 µM; in the assay on LOX IMVI melanoma, 2.02 µM; in the assay on OVCAR-3 ovarian, 1.87 µM. Further, the TGI in the assay on SF-268 CNS turned out to be 3.66 µM; with SF-295 CNS it was 5.71 µM; in the assay on SF-539 CNS, 1.17 µM.
